Laboratory results from PMC11225515, “6-Bromo quinazoline derivatives as cytotoxic agents: design, synthesis, molecular docking and MD simulation” (BMC Chemistry, 2024).
Read-outs that look alike come from different tables or passages of the source.

What was measured:
MRC-5 normal cell line = assay: MTT cytotoxic assay, normal cell line MRC-5; assay type: cell-based; settings: read-out: IC50 ± SD MRC-5
[1] = test system: SW480 (Colorectal carcinoma) cell line; assay: MTT cytotoxic assay, SW480; assay type: cell-based; settings: Homo sapiens, 72 h, 3 repetitions, read-out: IC50 ± SD SW480
Description: (§1) The antiproliferative activity of all the synthesized compounds (8a-8 h) was done by MTT (standard 3-(4,5-dimethylthiazol-yl)-2,5-diphenyl-tetrazolium bromide) assay according to our previous protocols. MCF-7 (breast carcinoma) and SW480 (Colorectal carcinoma) cell lines were choose and purchased from the National Cell Bank of Iran (NCBI, Pasteur Institute, Tehran, Iran). RPMI 1640 culture media with 10% fetal bovine serum (FBS) and 1% penicillin-streptomycin (Gibco, USA) were applied as culture. Trypsin/EDTA 0.5% solution (Gibco/USA) was used to harvest cells and then, the cells were seeded at a density of 1 × 10^4 cells per well in 96-well microplates. Five different concentrations of the derivatives and Cisplatin as the positive control (1 to 200 µM) were used for treatment in triplicate times. Three untreated wells were applied as the negative control. After 72 h, the media was changed by 100 µL fresh MTT solution and incubated for 4 h at 37 °C in the incubator to achieve formazan purple crystals. Finally, the media was removed and 150 µL of DMSO was added and incubated at 37 °C in the dark for 10 min to dissolve the crystals. A Microplate ELISA reader was applied to read the absorbance of individual wells at 490 nm. Analysis of the data was obtained by Excel 2016 and Curve Expert 1.4. The data was expressed as the mean ± SD for each analysis. GraphPad Prism software was used to perform one-way ANOVA statistical analyses, followed by Tukey’s multiple comparison test.

[2] = test system: MCF-7 (breast carcinoma) cell line; assay: MTT cytotoxic assay, MCF-7; assay type: cell-based; settings: for IC50: MTT, 72 h, 3 repetitions, read-out: IC50 ± SD MCF-7
Description: as §1, with “Five different concentrations of the derivatives and Cisplatin as the positive control (1 to 200 µM) were used for treatment in triplicate times.” left out

[3] = Homo sapiens, MRC5, 3 repetitions

Row | melting point | Compound | IC50 (MRC-5 normal cell line; [3]) | IC50 [1] | IC50 ([2]; Homo sapiens, MCF7) | times more potent than Erlotinib in MCF-7 cell line ([2]; cytotoxic activity compared with Erlotinib) | IC50 (MRC-5 normal cell line; 3 repetitions) | IC50 [2]
1 | 164 to 166 °C | Cc1ccc(CSc2nc3ccc(Br)cc3c(=O)n2-c2ccccc2)cc1 [8e, 6-bromo-2-((4-methylbenzyl)thio)-3-phenylquinazolin-4(3 H )-one] | > 100 µM | 63.1 ± 1.63 µM | 35.1 ± 3.02 µM | – | – | –
2 | 175 to 177 °C | O=c1c2cc(Br)ccc2nc(SCc2ccc(Br)cc2)n1-c1ccccc1 [8g, 6-bromo-2-((4-bromobenzyl)thio)-3-phenylquinazolin-4(3 H )-one] | > 100 µM | 68.4 ± 2.62 µM | 62.4 ± 3.32 µM | – | – | –
3 | 145 to 147 °C | O=c1c2cc(Br)ccc2nc(SCc2ccc(Cl)cc2)n1-c1ccccc1 [8f, 6-bromo-2-((4-chlorobenzyl)thio)-3-phenylquinazolin-4(3 H )-one] | > 100 µM | 72.2 ± 1.41 µM | 52.5 ± 2.92 µM | – | – | –
4 | 231 to 233 °C | O=c1c2cc(Br)ccc2nc(SCc2ccc([N+](=O)[O-])cc2)n1-c1ccccc1 [8h, 6-bromo-2-((4-nitrobenzyl)thio)-3-phenylquinazolin-4(3 H )-one] | > 100 µM | 65.4 ± 2.8 µM | 73.4 ± 3.09 µM | – | – | –

More lines, now with the values behind:

Row | Compound | melting point | IC50 (MRC-5 normal cell line; [3]) | IC50 [1] | IC50 ([2]; Homo sapiens, MCF7) | times more potent than Erlotinib in MCF-7 cell line ([2]; cytotoxic activity compared with Erlotinib) | IC50 (MRC-5 normal cell line; 3 repetitions) | IC50 [2]
5 | O=c1c2cc(Br)ccc2nc(SCc2ccccc2)n1-c1ccccc1 [8c, 2-(benzylthio)-6-bromo-3-phenylquinazolin-4(3 H )-one] | 140 to 142 °C | > 100 µM | 170.1 ± 1.34 µM | 142 ± 3.95 µM | – | – | –
6 | CCCCCSc1nc2ccc(Br)cc2c(=O)n1-c1ccccc1 [8b, 6-bromo-2-(pentylthio)-3-phenylquinazolin-4(3 H )-one] | 99 to 101 °C | 76.4 ± 2.62 µM | 56.5 ± 2.83 µM | 18.2 ± 2.01 µM | – | – | –
7 | C#Cc1cccc(Nc2ncnc3cc(OCCOC)c(OCCOC)cc23)c1 [Erlotinib, reference compound] | – | 22.9 ± 3.1 µM | 11.2 ± 0.38 µM | – | – | – | –
8 | COc1cccc2c1C(=O)c1c(O)c3c(c(O)c1C2=O)C[C@@](O)(C(=O)CO)C[C@@H]3O[C@H]1C[C@H](N)[C@H](O)[C@H](C)O1 [Doxorubicin, reference compound] | – | 0.52 ± 0.07 µM | 3.67 ± 0.24 µM | 2.5 ± 0.64 µM | – | – | –
9 | CCCCSc1nc2ccc(Br)cc2c(=O)n1-c1ccccc1 [8a, 6-bromo-2-(butylthio)-3-phenylquinazolin-4(3 H )-one] | 128 to 130 °C | 84.2 ± 1.72 µM | 17.9 ± 0.92 µM | 15.8 ± 1.48 µM | about 2 times | – | –
10 | Cc1cccc(CSc2nc3ccc(Br)cc3c(=O)n2-c2ccccc2)c1 [8d, 6-bromo-2-((3-methylbenzyl)thio)-3-phenylquinazolin-4(3 H )-one] | 101 to 103 °C | > 100 µM | 72.5 ± 2.9 µM | 59.1 ± 3.73 µM | – | – | –
11 | N.N.[Cl][Pt][Cl] [Cisplatin, reference compound] | – | – | – | – | – | 45.2 ± 2.5 µM | 9.9 ± 0.14 µM
